Laboratory results from article PMC12296492 (Cell Reports Methods, 2025).

Experiments:
[1] = molecular target: human STING ligand-binding domain (hSTING-LBD) (Homo sapiens, UniProt Q86WV6); assay: BLI Kd
[2] = molecular target: T1, mouse STING ligand-binding domain (mSTING-LBD) (Mus musculus, UniProt Q3TBT3); assay: BLI
T1 sequence (Q3TBT3 146-370): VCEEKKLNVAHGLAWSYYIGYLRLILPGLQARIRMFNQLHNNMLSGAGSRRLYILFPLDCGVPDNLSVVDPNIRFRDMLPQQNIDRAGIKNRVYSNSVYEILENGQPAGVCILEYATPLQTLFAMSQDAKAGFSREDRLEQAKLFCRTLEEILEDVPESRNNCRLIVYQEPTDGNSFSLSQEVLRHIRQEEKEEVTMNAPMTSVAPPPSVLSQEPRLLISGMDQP

Sequence of human STING ligand-binding domain (hSTING-LBD) (Q86WV6 155-343): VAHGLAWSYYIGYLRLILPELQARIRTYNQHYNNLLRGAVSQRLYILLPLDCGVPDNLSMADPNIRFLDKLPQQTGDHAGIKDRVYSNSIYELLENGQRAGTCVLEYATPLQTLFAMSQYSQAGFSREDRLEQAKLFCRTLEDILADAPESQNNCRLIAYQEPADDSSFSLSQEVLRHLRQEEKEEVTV

- Kd [1]: 12.9 ± 0.4 µM
- Kd [2]: 17 ± 0.5 µM
Structure (SMILES): C=CCc1ccc(O)c(-c2ccc(O)c(CC=C)c2)c1 [honokiol]
